Patent US9157053B1, “Laundry washing machine deodorizer” (priority 2009, dated 2015)

What was measured:
[1] = tested on: odor-causing biological growth (mold, mildew) in the machine; assay: early odor-control trials in the TROMM laundry washer, before the standardized procedure; settings: TROMM WM2688WM washer; Example 1: one ounce per load, 2.5 cu ft laundry, warm water
Excerpt: A TROMM Model # WM2688WM laundry washer made by LG Electronics Inc. was purchased. After a few months the odor problem was discovered. […] Applicant started to investigate why a new, expensive washer had this kind of problem. […] These are organic based materials. They provide a growth medium for mold, mildew and other biological growth. The odor is generated by this biofilm. The biofilm returns between each of the treatments.
Since the primary odor was thought to come from mildew, a well known material, 20 MULE TEAM BORAX® detergent was used as a detergent. The boron contained in the detergent is a toxic material that controls mold and fungus. […] The commercially available detergent contained a small amount of boron along with various other chemicals necessary for laundry cleaning.
One ounce of the borax was added to the machine for each load.
The laundry volume was standardized at a full basket of 2.5 Cu Ft.
All wash cycles were run with warm water.

biofilm = assay: standardized test procedure for objectionable odors (whiff test, Pass/Fail) in a High Efficiency laundry washing machine; settings: one ounce of composition per load, 14 days idle, TROMM WM2688WM HE washer, Tide Liquid HE detergent, 2.5 cu ft cotton laundry
Excerpt: The residue is a matrix of soap, detergent, cotton or wool fibers, and any other organic matter that was introduced by the dirty laundry. This provides a wide array of substances that can support biological growth. The exact mixture is an uncontrolled variable but it considered to be bounded by the use of one machine in one location. Experimental control also involves a standardized volume of the laundry load and the exclusive use of cotton items in the laundry washed. The detergent portion of the matrix was standardized by using only TIDE® Liquid HE Detergent.
A standardized test procedure was developed for a High Efficiency (HE) laundry washing machine. […]
The test procedure also involved a second growth period after the wash cycle where the damp laundry is allowed to sit idle in the laundry washing machine with the door closed. […] Given the above assumptions, it was reasonable to assume that the performance of the composition would be effectively quantified Personal experience with odor problem:
Experimentation with idle periods ranging from twenty four hours to three weeks verified that the intensity of the odor problem was a function of the biofilm growth in the machine during the idle period of the washing schedule. […] Therefore, it was determined that the criteria for effectiveness would be focused on the first load of the week. […]

## O=C([O-])O.[Na+] [baking soda]
[1]
  odor control: did not work well

## sodium borate pentahydrate [5 mol concentration borax]
biofilm
  first load odor control / first load performance: did increase the control of first load odors, but it was still erratic
